Source: ChEMBL document CHEMBL4184318, “Identification of Fast-Acting 2,6-Disubstituted Imidazopyridines That Are Efficacious in the in Vivo Humanized Plasmodium falciparum NODscidIL2Rγ null Mouse Model of Malaria” (J Med Chem, 2018)
Values after ≈ are worked out from the molar mass of the structure shown.

Assays:
[1] = Kinetic solubility of the compound in FaSSIF at pH 6.5 after 20 hrs by shake flask method; assay type: physicochemical; details: read-out: Kinetic_solubility
[2] = Kinetic solubility of the compound in phosphate buffered saline at pH 6.5 after 20 hrs by shake flask method; assay type: physicochemical; details: read-out: Kinetic_solubility
[3] = Kinetic solubility of the compound in HCl at pH 2 after 20 hrs by shake flask method; assay type: physicochemical; details: read-out: Kinetic_solubility
[4] = Drug metabolism in iv or po dosed Sprague-Dawley rat plasma assessed as oxidation of pyridine ring by LC-MS/MS method; assay type: ADME, organism-based; details: in vivo
[5] = Drug metabolism in iv or po dosed Sprague-Dawley rat plasma assessed as oxidation of phenyl ring by LC-MS/MS method; assay type: ADME, organism-based; details: in vivo

solubility kinetic at 20 h [1] [µM]	solubility kinetic at 20 h [2] [µM]	solubility kinetic at 20 h [3] [µM]	Drug metabolism [4]	Drug metabolism [5]	SMILES
9 (≈ 3.31 µg/mL)	7 (≈ 2.57 µg/mL)	11 (≈ 4.04 µg/mL)			O=C(O)c1ccc(Nc2cc3[nH]c(-c4ccc(F)c(F)c4)nc3cn2)nc1
50 to 100 (≈ 21.2 to 42.3 µg/mL)	< 5	< 5	Metabolite_Detected	Metabolite_Notdetected	FC(F)(F)c1ccc(Nc2cc3[nH]c(-c4cccc(C(F)(F)F)c4)nc3cn2)nc1
50 to 100 (≈ 19 to 38 µg/mL)	< 5	< 5			N#Cc1ccc(Nc2cc3[nH]c(-c4cccc(C(F)(F)F)c4)nc3cn2)nc1
	< 5	116 (≈ 44.7 µg/mL)			COc1cccnc1Nc1cc2[nH]c(-c3cccc(C(F)(F)F)c3)nc2cn1
170 (≈ 59 µg/mL)	170 (≈ 59 µg/mL)	200 (≈ 69.5 µg/mL)			Fc1ccc(Nc2cc3[nH]c(C4CCC(F)(F)CC4)nc3cn2)nc1
	< 5	155 (≈ 55.2 µg/mL)			FC(F)(F)c1cccc(-c2nc3cnc(Nc4cnccn4)cc3[nH]2)c1
104 (≈ 44.7 µg/mL)	< 5	200 (≈ 85.9 µg/mL)			FC(F)(F)c1ccc(Nc2cc3[nH]c([C@H]4CC[C@H](C(F)(F)F)CC4)nc3cn2)nc1
123 (≈ 39.3 µg/mL)	< 5	198 (≈ 63.2 µg/mL)			FC(F)(F)c1ccc(Nc2cc3[nH]c(C4CC4)nc3cn2)nc1
	< 5	< 5			COc1ccnc(Nc2cc3[nH]c(-c4cccc(C(F)(F)F)c4)nc3cn2)c1
	< 5	161 (≈ 57.4 µg/mL)			FC(F)(F)c1cccc(-c2nc3cnc(Nc4cccnn4)cc3[nH]2)c1
16 (≈ 6.63 µg/mL)	12 (≈ 4.97 µg/mL)	182 (≈ 75.4 µg/mL)			COC(=O)c1ccc(Nc2cc3[nH]c(-c4ccc(C(F)(F)F)nc4)nc3cn2)nc1
50 to 100 (≈ 19.6 to 39.1 µg/mL)	< 5	< 5			Fc1ccc(-c2nc3cnc(Nc4cc(C(F)(F)F)ccn4)cc3[nH]2)cc1F
	< 5	85 (≈ 32.8 µg/mL)			COc1cccc(Nc2cc3[nH]c(-c4cccc(C(F)(F)F)c4)nc3cn2)n1
161 (≈ 59.5 µg/mL)	118 (≈ 43.6 µg/mL)	181 (≈ 66.8 µg/mL)			FC1(F)CC(c2nc3cnc(Nc4ccc(C(F)(F)F)cn4)cc3[nH]2)C1
156 (≈ 52 µg/mL)	118 (≈ 39.3 µg/mL)	186 (≈ 62 µg/mL)			FC(F)(F)c1ccc(Nc2cc3[nH]c(CC4CC4)nc3cn2)nc1
127 (≈ 54.4 µg/mL)	< 5	164 (≈ 70.3 µg/mL)			CCOC(=O)c1ccc(Nc2cc3[nH]c(-c4ccc(C(F)(F)F)nc4)nc3cn2)nc1
6 (≈ 2.4 µg/mL)	6 (≈ 2.4 µg/mL)	< 5			O=C(O)c1ccc(Nc2cc3[nH]c(-c4cccc(C(F)(F)F)c4)nc3cn2)nc1
50 to 100 (≈ 18.7 to 37.3 µg/mL)	< 5	< 5			Fc1ccc(Nc2cc3[nH]c(-c4cccc(C(F)(F)F)c4)nc3cn2)nc1
50 to 100 (≈ 17.8 to 35.6 µg/mL)	< 5	180 (≈ 64.1 µg/mL)			FC(F)(F)c1ccc(-c2nc3cnc(Nc4ccccn4)cc3[nH]2)cn1
163 (≈ 62.5 µg/mL)	120 (≈ 46 µg/mL)	185 (≈ 70.9 µg/mL)			FC1(F)CCC(c2nc3cnc(Nc4ccc(C(F)(F)F)cn4)cc3[nH]2)C1 (configuration not stated)
179 (≈ 59.7 µg/mL)	188 (≈ 62.7 µg/mL)	200 (≈ 66.7 µg/mL)			CC1(c2nc3cnc(Nc4ccc(C(F)(F)F)cn4)cc3[nH]2)CC1
< 5		190 (≈ 86.2 µg/mL)			CN1CCN(c2ccc(Nc3cc4[nH]c(-c5cccc(C(F)(F)F)c5)nc4cn3)nc2)CC1
< 5	< 5	< 5			NC(=O)c1ccc(Nc2cc3[nH]c(-c4cccc(C(F)(F)F)c4)nc3cn2)nc1
50 to 100 (≈ 17.1 to 34.1 µg/mL)	< 5	166 (≈ 56.7 µg/mL)			Fc1ccnc(Nc2cc3[nH]c(-c4ccc(F)c(F)c4)nc3cn2)c1

solubility kinetic at 20 h [1] [µM]	solubility kinetic at 20 h [2] [µM]	solubility kinetic at 20 h [3] [µM]	Drug metabolism [4]	Drug metabolism [5]	SMILES
< 5	< 5	196 (≈ 88.9 µg/mL)			O=C(c1ccc(Nc2cc3[nH]c(-c4ccc(C(F)(F)F)nc4)nc3cn2)nc1)N1CCCC1
180 (≈ 62.9 µg/mL)	166 (≈ 58 µg/mL)	200 (≈ 69.9 µg/mL)			FC(F)(F)c1ccc(Nc2cc3[nH]c(C4CCOC4)nc3cn2)nc1 (configuration not stated)
168 (≈ 61 µg/mL)	155 (≈ 56.3 µg/mL)	196 (≈ 71.2 µg/mL)			FC(F)(F)c1ccc(Nc2cc3[nH]c(C4CCOCC4)nc3cn2)nc1
	10 (≈ 3.55 µg/mL)	200 (≈ 71.1 µg/mL)			FC(F)(F)c1cccc(-c2nc3cnc(Nc4ccncc4)cc3[nH]2)c1
161 (≈ 75.4 µg/mL)	168 (≈ 78.7 µg/mL)	200 (≈ 93.7 µg/mL)			O=C(c1ccc(Nc2cc3[nH]c(-c4ccc(C(F)(F)F)nc4)nc3cn2)nc1)N1CCNCC1
50 to 100 (≈ 19.6 to 39.1 µg/mL)	< 5	< 5			Fc1cnc(Nc2cc3[nH]c(-c4cccc(C(F)(F)F)c4)nc3cn2)c(F)c1
50 to 100 (≈ 19.6 to 39.1 µg/mL)	< 5	6 (≈ 2.35 µg/mL)			Fc1ccc(-c2nc3cnc(Nc4ccc(C(F)(F)F)cn4)cc3[nH]2)cc1F
50 to 100 (≈ 18.7 to 37.3 µg/mL)	< 5	7 (≈ 2.61 µg/mL)			Fc1ccc(-c2nc3cnc(Nc4ccccn4)cc3[nH]2)cc1C(F)(F)F
	< 5	155 (≈ 55.2 µg/mL)			FC(F)(F)c1cccc(-c2nc3cnc(Nc4ncccn4)cc3[nH]2)c1
	< 5	200 (≈ 71.3 µg/mL)			FC(F)(F)c1cccc(-c2nc3cnc(Nc4ccncn4)cc3[nH]2)c1
	< 5	26 (≈ 9.65 µg/mL)			FC(F)(F)Oc1ccc(-c2nc3cnc(Nc4ccccn4)cc3[nH]2)cc1
< 5	< 5	< 5			FC(F)(F)c1cccc(-c2nc3cnc(Nc4ccc(-c5nnn[nH]5)cn4)cc3[nH]2)c1
50 to 100 (≈ 16.2 to 32.3 µg/mL)	< 5	125 (≈ 40.4 µg/mL)			Fc1ccc(-c2nc3cnc(Nc4ccccn4)cc3[nH]2)cc1F
< 5	< 5	< 5			FC(F)(F)c1cccc(-c2nc3cnc(Nc4cc(-c5nnn[nH]5)ccn4)cc3[nH]2)c1
50 to 100 (≈ 21.2 to 42.3 µg/mL)	< 5	51 (≈ 21.6 µg/mL)			FC(F)(F)c1cccc(-c2nc3cnc(Nc4cccc(C(F)(F)F)n4)cc3[nH]2)c1
35 (≈ 15.4 µg/mL)	< 5	87 (≈ 38.3 µg/mL)			FC(F)(F)c1cccc(-c2nc3cnc(Nc4ccc(N5CCOCC5)cn4)cc3[nH]2)c1
50 to 100 (≈ 17.1 to 34.1 µg/mL)	< 5	42 (≈ 14.3 µg/mL)	Metabolite_Detected	Metabolite_Notdetected	Fc1ccc(Nc2cc3[nH]c(-c4ccc(F)c(F)c4)nc3cn2)nc1
< 5	< 5	8 (≈ 3.2 µg/mL)			O=C(O)c1ccc(Nc2cc3[nH]c(-c4ccc(C(F)(F)F)nc4)nc3cn2)nc1
< 5	< 5	99 (≈ 43.5 µg/mL)			O=C(NC1CC1)c1ccc(Nc2cc3[nH]c(-c4ccc(C(F)(F)F)nc4)nc3cn2)nc1
	< 5	< 5			COc1ccc(Nc2cc3[nH]c(-c4cccc(C(F)(F)F)c4)nc3cn2)nc1
58 (≈ 27.2 µg/mL)	33 (≈ 15.5 µg/mL)	200 (≈ 93.9 µg/mL)			O=C(c1ccc(Nc2cc3[nH]c(-c4ccc(C(F)(F)F)nc4)nc3cn2)nc1)N1CCOCC1
< 5	< 5	< 5			O=C(O)c1ccnc(Nc2cc3[nH]c(-c4ccc(C(F)(F)F)nc4)nc3cn2)c1
< 5	< 5	170 (≈ 70.3 µg/mL)			CNC(=O)c1ccc(Nc2cc3[nH]c(-c4ccc(C(F)(F)F)nc4)nc3cn2)nc1
60 (≈ 24 µg/mL)	< 5	< 5			O=C(O)c1ccnc(Nc2cc3[nH]c(-c4cccc(C(F)(F)F)c4)nc3cn2)c1
